Laboratory results published in PubChem BioAssay (NCI).
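Following 48 hours of exposure in 96-well plates, responses at five concentrations were used to interpolate endpoints linearly. Abbreviation: GI50, concentration required for 50% inhibition of growth. TGI is the concentration that stops growth completely.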

Columns and labels:
Assay in all cases: NCI anticancer screen, dose series, 48 h
LXFL 529 NSCLC = test system: LXFL 529 NSCLC
KM20L2 colon = test system: KM20L2 colon
RXF-631 renal = test system: RXF-631 renal
M19-MEL melanoma = test system: M19-MEL melanoma
XF 498 CNS = test system: XF 498 CNS
SNB-78 CNS = test system: SNB-78 CNS
HOP-18 NSCLC = test system: HOP-18 NSCLC
MDA-MB-231 breast = test system: MDA-MB-231 breast
DU-145 prostate = test system: DU-145 prostate
BT-549 breast = test system: BT-549 breast

SMILES | TGI (LXFL 529 NSCLC) [µM] | TGI (KM20L2 colon) [µM] | TGI (RXF-631 renal) [µM] | TGI (M19-MEL melanoma) [µM] | TGI (XF 498 CNS) [µM] | TGI (SNB-78 CNS) [µM] | TGI (HOP-18 NSCLC) [µM] | GI50 (LXFL 529 NSCLC) [µM] | GI50 (KM20L2 colon) [µM] | GI50 (HOP-18 NSCLC) [µM] | GI50 (M19-MEL melanoma) [µM] | GI50 (XF 498 CNS) [µM] | GI50 (SNB-78 CNS) [µM] | TGI (MDA-MB-231 breast) [µM] | TGI (DU-145 prostate) [µM] | TGI (BT-549 breast) [µM]
CON1C(=O)C2(CCCCC2)C(=O)C12C=CC(C)CC2 (stereo not drawn) | > 100 | > 100 | > 100 | > 100 | > 100 | > 100 | – | – | – | – | – | – | – | – | – | –
Oc1ccc(O)c(-n2cccn2)c1 | 38.9 | > 100 | > 100 | 76.1 | > 100 | > 100 | – | – | – | – | – | – | – | – | – | –
COc1nc(NC2OC(COC(C)=O)C(OC(C)=O)C(OC(C)=O)C2OC(C)=O)c(N=C(C)C(C)=O)c(=O)n1C (stereo not drawn) | > 100 | > 100 | – | > 100 | > 100 | > 100 | > 100 | – | – | – | – | – | – | – | – | –
CSc1nc2c(nc(N)n2C2OC(CO)C(O)C(O)C2O)c(=O)[nH]1 (stereo not drawn) | > 100 | > 100 | > 100 | > 100 | > 100 | > 100 | > 100 | – | – | – | – | – | – | – | – | –
COC(=O)CCCCCOS(=O)(=O)c1ccc(C)cc1 | > 100 | > 100 | > 100 | > 100 | > 100 | > 100 | > 100 | – | – | – | – | – | – | – | – | –
C[N+]1(CCNP(=S)(NCC[N+]2(C)Cc3c(ccc4c3OCO4)C3C2c2cc4c(cc2C[C@@H]3O)OCO4)NCC[N+]2(C)Cc3c(ccc4c3OCO4)C3C2c2cc4c(cc2C[C@@H]3O)OCO4)Cc2c(ccc3c2OCO3)C2C1c1cc3c(cc1C[C@H]2O)OCO3 (stereo partly drawn) | – | – | – | – | – | – | – | 2.75 | 2.13 | 45.2 | 2.04 | 0.846 | 2.7 | – | – | –
OC(c1cc2ccccc2[nH]1)C(O)(c1cc2ccccc2[nH]1)c1cc2ccccc2[nH]1 (stereo not drawn) | 40.2 | > 245 | 58.3 | 23.1 | – | – | – | – | – | – | – | – | – | – | – | –
CC(=O)O[C@H]1CC[C@@]2(C)C(=CC[C@H]3C(CC#N)[C@@](C)(C#N)CCC32)C1 (stereo partly drawn) | > 100 | > 100 | – | > 100 | > 100 | > 100 | – | – | – | – | – | – | – | – | – | –
CC(=O)NNc1ncc(C(=O)/C=C/c2ccccc2C)s1 | – | > 100 | > 100 | > 100 | – | > 100 | > 100 | – | – | – | – | – | – | – | – | –
COc1ccc2c(c1)c1ccc3c(c1n2C)C(=O)C=CC3=O | 30.2 | > 57.3 | > 45.5 | > 58.9 | 32.1 | 45.5 | 24.7 | – | – | – | – | – | – | 12.1 | 15 | 10.3
COc1cccc(/C=C2\N=C(Cl)OC2=O)c1O | > 100 | > 100 | – | – | > 100 | > 100 | > 100 | – | – | – | – | – | – | – | > 100 | –
CCCCSC1CCSc2c1ccc1ccccc21 (stereo not drawn) | – | > 100 | – | > 100 | 63.9 | > 100 | > 100 | – | – | – | – | – | – | – | – | –
Clc1ccc(-c2nnc(-c3nn(-c4ccccc4)c4nc5ccccc5nc34)o2)cc1 | > 100 | > 100 | – | > 100 | 64.6 | > 100 | > 100 | – | – | – | – | – | – | – | – | –
COc1ccc(/C=C/c2cc(OC)c(OC)c(OC)c2)cc1OC | > 100 | > 100 | > 100 | – | > 100 | 91.9 | > 100 | – | – | – | – | – | – | – | – | –
C=CCN=C1NC(=O)C(CC(=O)Nc2cccc(Cl)c2)S1 (stereo not drawn) | > 100 | > 100 | > 100 | > 100 | > 100 | – | > 100 | – | – | – | – | – | – | – | – | –
Cn1nc(-c2ccccc2)c2c(/C=C/c3ccc(F)cc3)onc2c1=O | > 100 | > 100 | – | > 100 | > 100 | – | > 100 | – | – | – | – | – | – | – | – | –
CO/S(=N/S(=O)(=O)c1ccccc1)c1ccccc1[N+](=O)[O-] (stereo not drawn) | > 100 | > 100 | > 100 | > 100 | > 100 | – | > 100 | – | – | – | – | – | – | – | – | –
CCCCCCCCCCNC(=S)OC | > 100 | > 100 | > 100 | 69.4 | – | > 100 | > 100 | – | – | – | – | – | – | – | – | –
